{
  "source": "patent US11517604B2",
  "about": "“Method for preparing Plectranthus amboinicus fraction having anti-arthritis activity” (ONENESS BIOTECH CO., priority 2011, dated 2022)",
  "type_in_all_cases": "cell-based, human",
  "key": {"IFN-γ": {"tested_on": "IFN-γ", "test": "PHA-induced IFN-γ release from PBMCs (ELISA)", "conditions": "PHA + 0.1uM DEX; PHA alone 176.8, without PHA 25.0", "procedure": "(§1) The peripheral blood mononuclear cells (PBMCs) from the blood of healthy adult donors were diluted and isolated by Ficoll-Paque (FP) gradient centrifugation (Amersham Biosciences) at 600 g for 30 min at room temperature. The isolated PBMCs were washed by phosphate buffered saline, re-suspended in 10% heat inactivated fetal bovine serum (FBS), and seeded in 96-well culture plate with a density of […] cells per well for assessing the anti-arthritis activity of the extracts as described herein.\n(§2) PHA-induced PBMC proliferation was used as a technical platform for the assessment of anti-inflammation efficacy of various extracts of the present invention. Human PBMCs were co-cultured with PHA at a final concentration of 5 μg/mL and various extracts of Plectranthus amboinicus at a final concentration of 0˜90 μg/mL for 3 days. […] The absorbance of each well was detected by a photoelectric colorimeter at the wavelength of 540 nm. […] Three independent experiments were performed, and the data determined by MTT assays were further expressed as IC50.\n(§3) On Day 3, cell supernatant was collected, divided, and stored at −20° C. until analysis. The amounts of TNF-α, interleukin IL-6, IFN-γ, and IL-5 in the supernatant were measured using Quantikine ELISA kits (R & D Systems, Minneapolis, Minn.) following the manufacturer's instruction."}, "TNF-α": {"tested_on": "TNF-α", "test": "PHA-induced TNF-α release from PBMCs (ELISA)", "conditions": "PHA + 0.1uM DEX; PHA alone 4031.3, without PHA 271.6", "procedure": "as §1, §2, §3"}, "[1]": {"tested_on": "PHA-induced PBMC proliferation", "test": "Inhibition of PHA-induced PBMC proliferation (MTT assay)", "conditions": "positive control 0.1 uM; PHA 5 μg/mL, 3 days; PHA alone 0.634, without PHA 0.245", "procedure": "as §1\nas §2, with “days. PBMCs treated by dexamethasone (DEX) before stimulation by PHA (5 μg/mL) were also included in the experiment as positive control samples. After cells were incubated for 3 days at 37° C. with humid air containing 5% CO2, MTT (methyl thiazolyl tetrazolium, MTT) assays were carried out to evaluate the proliferation rate of PBMCs.” for “days.”"}, "IL-5": {"tested_on": "IL-5", "test": "PHA-induced IL-5 release from PBMCs (ELISA)", "conditions": "PHA + 0.1uM DEX; PHA alone 161.9, without PHA 37.0", "procedure": "as §1, §2, §3"}, "IL-6": {"tested_on": "IL-6", "test": "PHA-induced IL-6 release from PBMCs (ELISA)", "conditions": "PHA + 0.1uM DEX; PHA alone 703.0, without PHA 157", "procedure": "as §1, §2, §3"}},
  "data": [
    {"smiles": "C[C@@H]1C[C@H]2[C@@H]3CCC4=CC(=O)C=C[C@]4(C)[C@@]3(F)[C@@H](O)C[C@]2(C)[C@@]1(O)C(=O)CO", "note": "[DEX, dexamethasone]", "values": [
      {"measurement": "Concentration of IFN-γ released from PBMCs", "setting": "IFN-γ", "value": 25, "unit": "pg/mL"},
      {"measurement": "Concentration of TNF-α released from PBMCs", "setting": "TNF-α", "value": 272.5, "unit": "pg/mL"},
      {"measurement": "PHA-induced PBMC proliferation, MTT assay data (absorbance 540 nm)", "setting": "[1]", "value": 0.242},
      {"measurement": "Concentration of IL-5 released from PBMCs", "setting": "IL-5", "value": 37, "unit": "pg/mL"},
      {"measurement": "Concentration of IL-6 released from PBMCs", "setting": "IL-6", "value": 157, "unit": "pg/mL"}
    ]}
  ]
}
